Assay results published in patent publication US10738026B2, “Isoquinoline derivatives and use thereof” (Purdue Pharma L.P., priority 2014, dated 2020).

Assays:
[1] = molecular target: human Nav1.7 (Homo sapiens (Human), UniProt Q15858); assay: FLIPR or FLIPR TETRA sodium dye assay with KCl and test article pre-incubation (sodium mobilization); type: cell-based; conditions: recombinant human Nav1.7 in HEK293; veratridine and scorpion venom as agonists
[2] = molecular target: hNav1.7 (Homo sapiens (Human), UniProt Q15858); assay: Electrophysiology (EP) assay, whole-cell patch clamp in hNav1.7 expressing HEK-293 cells; type: cell-based; conditions: hNav1.7 HEK-293 cells; affinity for the inactivated state of the channel; read-out: Nav1.7 Activity (μM) EP assay Ki
Sequence of hNav1.7 (Q15858 other isoform, or with tags, fused parts or gaps): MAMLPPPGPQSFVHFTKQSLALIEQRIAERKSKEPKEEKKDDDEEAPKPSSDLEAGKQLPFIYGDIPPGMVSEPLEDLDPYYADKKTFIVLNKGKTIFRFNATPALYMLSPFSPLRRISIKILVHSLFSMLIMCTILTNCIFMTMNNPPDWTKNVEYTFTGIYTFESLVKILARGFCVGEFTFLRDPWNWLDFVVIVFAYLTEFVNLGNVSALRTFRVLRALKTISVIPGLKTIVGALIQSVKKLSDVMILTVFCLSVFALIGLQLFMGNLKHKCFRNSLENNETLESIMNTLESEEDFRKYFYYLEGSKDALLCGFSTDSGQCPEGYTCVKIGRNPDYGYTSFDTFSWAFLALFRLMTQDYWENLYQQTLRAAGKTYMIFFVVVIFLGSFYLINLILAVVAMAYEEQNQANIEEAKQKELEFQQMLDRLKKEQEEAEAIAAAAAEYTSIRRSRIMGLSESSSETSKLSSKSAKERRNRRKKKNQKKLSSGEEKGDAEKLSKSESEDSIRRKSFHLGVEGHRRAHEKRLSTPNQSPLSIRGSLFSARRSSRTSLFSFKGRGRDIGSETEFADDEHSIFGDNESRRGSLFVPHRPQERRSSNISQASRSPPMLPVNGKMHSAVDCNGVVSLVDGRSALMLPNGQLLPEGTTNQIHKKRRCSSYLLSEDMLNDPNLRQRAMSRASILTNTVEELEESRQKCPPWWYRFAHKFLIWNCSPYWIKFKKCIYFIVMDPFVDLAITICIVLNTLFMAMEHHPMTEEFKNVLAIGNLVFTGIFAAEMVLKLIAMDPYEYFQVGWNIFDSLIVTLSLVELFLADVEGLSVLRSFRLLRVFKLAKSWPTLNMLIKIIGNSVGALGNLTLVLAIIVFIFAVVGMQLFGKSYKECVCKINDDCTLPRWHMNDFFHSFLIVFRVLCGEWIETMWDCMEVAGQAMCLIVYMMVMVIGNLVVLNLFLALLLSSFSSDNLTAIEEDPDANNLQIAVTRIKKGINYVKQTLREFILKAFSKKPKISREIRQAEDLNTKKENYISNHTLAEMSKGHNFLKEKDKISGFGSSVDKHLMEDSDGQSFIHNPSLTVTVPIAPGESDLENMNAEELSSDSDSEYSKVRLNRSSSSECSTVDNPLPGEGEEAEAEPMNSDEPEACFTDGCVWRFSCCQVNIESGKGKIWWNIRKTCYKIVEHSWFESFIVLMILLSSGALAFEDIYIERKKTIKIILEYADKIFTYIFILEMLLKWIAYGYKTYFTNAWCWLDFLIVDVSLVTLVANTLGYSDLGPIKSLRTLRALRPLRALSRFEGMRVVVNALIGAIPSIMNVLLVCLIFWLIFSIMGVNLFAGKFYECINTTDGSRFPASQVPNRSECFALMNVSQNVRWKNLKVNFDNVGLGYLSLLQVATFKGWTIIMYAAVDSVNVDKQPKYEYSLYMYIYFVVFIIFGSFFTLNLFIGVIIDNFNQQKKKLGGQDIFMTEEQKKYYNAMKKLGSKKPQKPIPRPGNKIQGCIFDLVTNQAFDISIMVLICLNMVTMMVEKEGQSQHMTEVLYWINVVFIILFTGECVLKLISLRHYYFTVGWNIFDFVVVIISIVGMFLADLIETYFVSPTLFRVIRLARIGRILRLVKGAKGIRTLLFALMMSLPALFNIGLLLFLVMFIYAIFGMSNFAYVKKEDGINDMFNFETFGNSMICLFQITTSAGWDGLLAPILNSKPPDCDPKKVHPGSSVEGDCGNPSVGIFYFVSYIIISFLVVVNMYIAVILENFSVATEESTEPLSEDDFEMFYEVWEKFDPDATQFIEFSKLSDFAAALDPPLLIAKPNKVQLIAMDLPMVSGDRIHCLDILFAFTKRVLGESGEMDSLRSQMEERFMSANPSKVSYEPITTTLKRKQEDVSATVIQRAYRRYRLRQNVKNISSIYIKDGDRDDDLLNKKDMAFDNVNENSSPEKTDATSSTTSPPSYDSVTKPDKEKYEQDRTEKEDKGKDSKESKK

Sequence of human Nav1.7 (Q15858 with tags, fused parts or gaps limits assumed): as the sequence (Q15858 other isoform, or with tags, fused parts or gaps) above

Row | Structure (SMILES) | IC50 [1] [µM] | Ki [2] [µM]
1 | C[C@H](Nc1cc(C(N)=O)nc(N2CCc3c(cccc3-c3ccc(C(F)(F)F)cc3)C2)n1)C(N)=O [Compound 22, (S)-6-((1-amino-1-oxopropan-2-yl)amino)-2-(5-(4-(trifluoromethyl)phenyl)-3,4-dihydroisoquinolin-2(1H)-yl)pyrimidine-4-carboxamide] | 0.428 ± 0.069 | 0.317 ± 0.079
2 | C[C@H](Nc1cc(C(N)=O)nc(N2CCc3c(cccc3-c3ccc(C(F)(F)F)cn3)C2)n1)C(N)=O [Compound 23, (S)-6-((1-amino-1-oxopropan-2-yl)amino)-2-(5-(5-(trifluoromethyl)-pyridin-2-yl)-3,4-dihydroisoquinolin-2(1H)-yl)pyrimidine-4-carboxamide] | > 20 | 
3 | C[C@H](Nc1cc(C(N)=O)nc(N2CCc3c(cccc3-c3ccccc3C(F)(F)F)C2)n1)C(N)=O [Compound 24, (S)-6-((1-amino-1-oxopropan-2-yl)amino)-2-(5-(2-(trifluoromethyl)-phenyl)-3,4-dihydroisoquinolin-2(1H)-yl)pyrimidine-4-carboxamide] | 2.35 ± 0.125 | 
4 | NC(=O)c1cccc(N2CCc3c(cccc3-c3ccc(C(F)(F)F)cc3)C2)n1 [Compound 25, 6-(5-(4-(trifluoromethyl)phenyl)-3,4-dihydroisoquinolin-2(1H)-yl)picolinamide] | 0.987 ± 0.072 | 
5 | NC(=O)[C@@H](O)[C@H](O)c1cccc(N2CCc3c(cccc3-c3ccc(C(F)(F)F)cc3)C2)n1 [Compound 26, (2S,3R)-2,3-dihydroxy-3-(6-(5-(4-(trifluoromethyl)phenyl)-3,4-dihydroisoquinolin-2(1H)-yl)pyridin-2-yl)propanamide] | 0.251 ± 0.017 | 0.051 ± 0.014
6 | C[C@H](Nc1cc(C(N)=O)nc(N2CCc3c(cccc3-c3cccc(C(F)(F)F)c3)C2)n1)C(N)=O [Compound 27, (S)-6-((1-amino-1-oxopropan-2-yl)amino)-2-(5-(3-(trifluoromethyl)phenyl)-3,4-dihydroisoquinolin-2(1H)-yl)pyrimidine-4-carboxamide] | 1.52 ± 0.122 | 0.24 ± 0.041
7 | C[C@H](Nc1cc(C(N)=O)nc(N2CCc3c(cccc3C3=CCCCC3)C2)n1)C(N)=O [Compound 28, (S)-6-((1-amino-1-oxopropan-2-yl)amino)-2-(5-(cyclohex-1-en-1-yl)-3,4-dihydroisoquinolin-2(1H)-yl)pyrimidine-4-carboxamide] | 2.84 ± 0.112 | 
8 | O=S(=O)(Nc1ncns1)c1cccc(N2CCc3c(cccc3-c3ccc(C(F)(F)F)cc3)C2)n1 [Compound 29, N-(1,2,4-thiadiazol-5-yl)-6-(5-(4-(trifluoromethyl)phenyl)-3,4-dihydroisoquinolin-2(1H)-yl)pyridine-2-sulfonamide] | 0.291 ± 0.019 | 0.535 ± 0.145
9 | C[C@H](Nc1cc(C(N)=O)nc(N2CCc3c(cccc3C3CCCCC3)C2)n1)C(N)=O [Compound 31, (S)-6-((1-amino-1-oxopropan-2-yl)amino)-2-(5-cyclohexyl-3,4-dihydroisoquinolin-2(1H)-yl)pyrimidine-4-carboxamide] | 2.2 ± 0.898 | 
10 | NC(=O)c1cc(N2CCc3c(cccc3-c3ccc(C(F)(F)F)cc3)C2)cc([C@H](O)CO)n1 [Compound 35, (S)-6-(1,2-dihydroxyethyl)-4-(5-(4-(trifluoromethyl)phenyl)-3,4-dihydroisoquinolin-2(1H)-yl)picolinamide] | 0.502 ± 0.031 | 0.232 ± 0.065
11 | NC(=O)c1cc(N2CCc3c(cccc3-c3ccc(C(F)(F)F)cc3)C2)cc([C@@H](O)CO)n1 [Compound 36, (R)-6-(1,2-dihydroxyethyl)-4-(5-(4-(trifluoromethyl)phenyl)-3,4-dihydro-isoquinolin-2(1H)-yl)picolinamide] | 1.54 ± 0.229 | 0.257 ± 0.046
